Measurements reported in article PMC5581131, “The novel sphingosine-1-phosphate receptors antagonist AD2900 affects lymphocyte activation and inhibits T-cell entry into the lymph nodes” (Oncotarget, 2017).

Assays:
S1P5 = biological target: T1, S1P5 (Homo sapiens, UniProt Q9H228); experiment: S1P5 agonist test, Tango S1P5-bla U-2 OS cells; format: cell-based; conditions: S1P5 TANGO U-2 OS cell line
T1 construct: Tango fusion partner (protease site + GAL4-VP16 transcription factor); expressed in transfected cells; host or cells: Tango S1P5-bla U-2 OS cells
Method: (§1) Since AD2900 is a sphingolipid analogue with properties that resemble those of S1P, we intended to examine its ability to interact with the S1P receptors. To delineate whether AD2900 can function as an agonistic or antagonistic compound to any of the S1P receptors, we used a high-throughput screening cell-based assay, employing cell lines stably transfected with human S1P receptors 1, 2, 3, 4, or 5 [37]. In this experiment, a compound with an IC50 or EC50 value ≤10 μM for a certain S1P receptor is considered active as an antagonist or an agonist, respectively. The results illustrate that AD2900 acts as an antagonist to all S1P receptors (Table 1, Supplementary Figure 3). […] No agonist activation was evident.
(§2) The S1P1 agonist test and S1P2, S1P3, S1P4, and S1P5 agonist and antagonist tests were conducted as previously described using S1P1 CRE-bla CHO cells, S1P2 CRE-bla CHO cells, S1P3 NFAT-bla CHO cells, Tango™ S1P4 (EDG6)-bla U-2 OS cells, and Tango™ S1P5 ([…])-bla U-2 OS cells. The S1P1 antagonist assay was carried out according to the manufacturer’s instructions using a Tango™ S1P1 (EDG1)-bla U-2 OS Cell-Based Assay (Invitrogen, NY, USA).

S1P1 expression on PBMCs = experiment: S1P1 cell surface expression on PBMCs, FACS; format: cell-based, human
Method: Among the S1P receptors, S1P1 is the most widespread receptor in the immune system and is expressed by several cell populations. […] Since AD2900 functions as an antagonist on S1P1, we next checked whether AD2900 affects S1P1 expression on PBMCs; FTY720 and SEW2817 were used as positive controls. The percentage of cells expressing S1P1 on their cell surface was detected by FACS analysis and was calculated as % of expression in non-treated cells. Low doses of AD2900 led to a decreased number of S1P1-expressing PBMCs after a 30-min treatment (Figure 3A and Supplementary Figure 2C). […] The highest effect was obtained at 100 nM with a mean of 51% ± 9% expression as compared to untreated control PBMCs.
Figure 3 AD2900 downregulates the percentage of S1P1- and CCR7-expressing cells in PBMCs (A, B) The percentages of S1P1-positive PBMCs after the treatment with different concentrations of AD2900, FTY720, or SEW2871 and at different time points were examined by FACS analysis. S1P1 expression was tested in PBMCs after a 30-min treatment with AD2900 at different concentrations (A) or after a 30-min or 60-min treatment with 100 nM AD2900, FTY720, or SEW2871 (B). (C) The percentage of CCR7-positive PBMCs was tested by FACS analysis after a 30-min treatment with 100 nM AD2900, FTY720, or SEW2871. All the significances are compared to untreated PBMCs. Results summarize the results of at least four independent experiments. Results of Student’s t-test: *(P < 0.05, two-tailed test), ** (P < 0.01, two-tailed test), *** (P < 0.001, two-tailed test), **** (P < 0.0001, two-tailed test).
Human PBMCs: For the apoptosis test, anti-AnnexinV-FITC (BD Biosciences, CA, USA) was used. To analyze S1P1 surface expression on AD2900-treated PBMCs, the following were used: anti-S1P1 (Alomone labs, Israel), anti-EDG-1 (Abcam, UK), Dylight405-conjugated AffiniPure Goat Anti-Rabbit lgG (H + L), and APC-conjugated AffiniPure F(ab')2 Goat Anti-Rabbit lgG(H + L) (Jackson ImmonoResearch, USA). For CCR7 expression, we used anti-CCR7-APC (Biolegend, CA, USA).

C57BL/6J female mice = experiment: Leukocyte counts in thymus, blood, spleen and lymph nodes after oral administration in drinking water; format: in vivo, mouse; conditions: 1.8 mg/l in drinking water
Method: Next, 7- to 8-week-old C57BL/6J female mice were orally administered with AD2900 mixed in drinking water in different dosages (1.8, 2.7, or 3.6 mg/l) for 2 days (Figure 4A) or 7 days (Figure 4B); FTY720 was used as a positive control. In the 7-day experiment, the water was replaced on Day 3 with fresh water containing the same concentration of analog. At the end of the experiment, blood, spleen, inguinal lymph nodes, and thymus were obtained from each animal and the number of leukocytes was evaluated.
Figure 4 AD2900 treatment alters the distribution of leukocytes in the thymus, blood, spleen, and peripheral lymph nodes in mice C57BL/6 female mice were orally administered with 1.8 mg/l AD2900 in their drinking water for 2 days (A) or 7 days (B), and FTY720 (1.8 mg/l) was used as a positive control. Leukocytes from the thymus, blood, spleen, and peripheral lymph nodes (pLNs) were collected and counted. All the significances are compared to untreated healthy mice. Results summarize four independent experiments in figure (A) and two independent experiments in figure (B). n = 4–7 mice per group in each experiment. Results of Student’s t-test:*(P < 0.05, two-tailed test), ** (P < 0.01, two-tailed test), *** (P < 0.001, two-tailed test), **** (P < 0.0001, two-tailed test).
C57BL/6 female mice aged 7–8 weeks were obtained from Harlan Laboratories (Jerusalem, Israel). The animal study was conducted under appropriate conditions and was approved by the Institutional Animal Care and Use Committee of the Hebrew University of Jerusalem in accordance with the national laws and regulations for the protection of animals. AD2900 was dissolved in 10% BSA (MP Biomedicals, CA, USA) in DDW at 1 mg/ml and then further diluted in 200 ml water to get final concentrations at 1.8, 2.7, or 3.6 mg/l. AD2900 and FTY720 were supplied ad libitum to the mice for 2 days or 7 days. At the end of the experiment, blood was collected, and the mice were sacrificed and tissues (lymph nodes and spleen) were harvested.
Murine blood samples, collected in tubes coated with EDTA (Grelner bio-one, Germany), were counted by a Mindray veterinary hematology Analyzer (Mindray, China). Single cell suspensions of lymph nodes and spleen were made in 1.5 ml of PBS. Cell counts were determined from these suspensions, yielding results in thousands of cells per microliter (μl).

S1P1 = S1P1 (Homo sapiens, UniProt P21453); experiment: S1P1 antagonist assay, Tango S1P1 (EDG1)-bla U-2 OS cells; format: cell-based; parameters: Tango fusion partner (protease site + GAL4-VP16 transcription factor); host or cells: Tango S1P1 (EDG1)-bla U-2 OS cells; conditions: S1P1 TANGO U-2 OS cell line
Method: as §1, §2

S1P1, sequence (P21453 whole entry, the tested form may be a part): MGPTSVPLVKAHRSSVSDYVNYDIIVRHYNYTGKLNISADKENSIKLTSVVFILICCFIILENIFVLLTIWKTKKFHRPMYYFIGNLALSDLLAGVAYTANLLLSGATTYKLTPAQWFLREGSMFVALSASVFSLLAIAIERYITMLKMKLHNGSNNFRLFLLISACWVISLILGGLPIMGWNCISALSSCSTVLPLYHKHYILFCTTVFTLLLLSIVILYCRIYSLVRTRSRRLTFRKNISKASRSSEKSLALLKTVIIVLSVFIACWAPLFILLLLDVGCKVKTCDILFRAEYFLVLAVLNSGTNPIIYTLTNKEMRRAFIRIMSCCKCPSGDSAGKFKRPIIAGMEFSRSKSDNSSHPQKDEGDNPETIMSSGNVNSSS
T1 sequence (Q9H228 whole entry, the tested form may be a part): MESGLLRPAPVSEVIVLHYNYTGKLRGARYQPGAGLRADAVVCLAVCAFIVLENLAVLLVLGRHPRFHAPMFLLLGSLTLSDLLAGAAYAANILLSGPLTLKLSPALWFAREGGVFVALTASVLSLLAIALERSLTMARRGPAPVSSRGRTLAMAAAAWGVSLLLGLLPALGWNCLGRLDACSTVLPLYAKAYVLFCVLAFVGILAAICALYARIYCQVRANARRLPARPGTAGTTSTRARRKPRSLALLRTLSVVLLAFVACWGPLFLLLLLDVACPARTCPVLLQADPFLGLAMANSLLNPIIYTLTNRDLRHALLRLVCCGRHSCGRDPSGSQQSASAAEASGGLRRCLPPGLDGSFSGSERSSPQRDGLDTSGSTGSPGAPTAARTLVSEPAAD

Compound	EC50 (S1P5) [µM]	effect on S1P1 cell surface expression, 30-min versus 60-min treatment (S1P1 expression on PBMCs; 100 nM)	S1P1 expression as compared to untreated control PBMCs (S1P1 expression on PBMCs; 100 nM, 30-min treatment, highest effect)	S1P1 expression level (S1P1 expression on PBMCs; 4000 nM, 30-min treatment)	concentrations that significantly and dose-dependently decreased S1P1 expression (S1P1 expression on PBMCs; 30-min treatment) [nM]	increase of splenocyte counts (C57BL/6J female mice; 2-day treatment)	increase of thymus WBC count (C57BL/6J female mice; 2-day treatment)	increase of mice WBC count (C57BL/6J female mice; 7-day treatment)	increase of splenocyte counts (C57BL/6J female mice; 7-day treatment)	reduction of the number of leukocytes in the lymph nodes, of that of the control (C57BL/6J female mice; 7-day treatment)	IC50 (S1P1) [µM]	lymph node leukocyte count (C57BL/6J female mice; 2-day and 7-day treatments)	WBC and splenocyte counts (C57BL/6J female mice; both 2-day and 7-day treatments)
CCCCCCCCCCCCCCCCNC(CO)(CO)CO [AD2900]	> 50	transient and reversed shortly after a 60-min treatment	51% ± 9%	returned to that of untreated control	25 to 2000	33% ± 9%	25% ± 8.2%	23% ± 7%	20% ± 7%	18% ± 4%	3.8		
CCCCCCCCc1ccc(CCC(N)(CO)CO)cc1 [FTY720, Fingolimod, reference compound]		smaller reduction of S1P1 cell surface expression, but its effect was not reversed after a 60-min treatment										only minor effects	dramatically reduced
